Data: patent US20260042834A1, “ANTI-CORTICOTROPIN-RELEASING HORMONE ANTIBODIES AND POLYCYSTIC OVARY SYNDROME” (HBM ALPHA THERAPEUTICS, INC., priority 2022, published 2026)

Test system: human CRHR1
Test: CRH-induced luciferase reporter blocking assay, CHO-CRE-hCRHR1 cells
Assay type: cell-based
Details: CHO-CRE-hCRHR1 Clone 11, data not shown
Procedure: To create CHO-CRE-hCRHR1, -hCRHR2, -mCRHR1, and -mCRHR2 reporter cell lines, pcDNA3.1-hCRHR1, -hCRHR2, -mCRHR1, and -mCRHR2 were introduced into CHO-CRE cells established above by electroporation as described above. Selection antibiotics hygromycin at 500 μg/ml and G418 at 1,000 μg/ml were employed. Individual established stable cell lines were characterized by both CRH and forskolin stimulation.
Activated GPCR proteins increase production of the intracellular cAMP.
Blocking CRHR1 by small molecules or neutralization of CRH peptide can reduce luciferase expression if the CRH-CRHR1 system works in CHO-CRE-hCRHR1 cells.
50 μl of 4× serially diluted antibodies was added (8 points, 1/4 diluted by growth medium) to plates containing CHO-CRE-hCRHR1 cells, and 50 μl of 4×CRH (4× is 2 nM, final is 0.5 nM) was added. Similarly, 4×CRH (4× is 0.4 nM, final is 0.1 nM) was added to CHO-CRE-hCRHR2 cells and CHO-CRE-mCRHR1 cells, and 4×CRH (4× is 20 nM, final is 5 nM) was added to CHO-CRE-mCRHR2 cells. Next, plates were incubated 4-6 hours at 37° C. in a CO2 incubator. 60 μl of culture medium was removed, to which was added 60 μl of Bio-Glo luciferase, followed by incubation for 10 min at RT. Plates were read in a luciferase plate reader (EnVision, PerkinElmer).

CCCCN(CC)c1nc(C)nc2c1c(C)c(C)n2-c1c(C)cc(C)cc1C [Antalarmin, reference compound]
CRH-mediated luciferase expression: blocked
